Data from patent US20120232070A1, “Use of Indole Derivatives as Nurr-1 Activators for the Application Thereof as a Medicament for the Treatment of Parkinson's Disease” (Laboratoires Fournier SA, priority 2009, published 2012).

Key:
[1] = target: hNurr1_RXRγFL (NURR1/RXRγ heterodimer) (Homo sapiens, UniProt P43354+P48443); assay: Transactivation assay in Cos-7 cells, NURR-1-Gal4 / RXRγ, luciferase reporter; type: cell-based; conditions: for Emax: COS-7, read-out: hNurr1_RXRγFL Eff (%), efficacy in % relative to the reference XCT0135908 at 2·10^−5 M (=100%); for EC50: Cos-7 cells, overnight incubation
hNurr1_RXRγFL (NURR1/RXRγ heterodimer), sequence (P43354 328-598): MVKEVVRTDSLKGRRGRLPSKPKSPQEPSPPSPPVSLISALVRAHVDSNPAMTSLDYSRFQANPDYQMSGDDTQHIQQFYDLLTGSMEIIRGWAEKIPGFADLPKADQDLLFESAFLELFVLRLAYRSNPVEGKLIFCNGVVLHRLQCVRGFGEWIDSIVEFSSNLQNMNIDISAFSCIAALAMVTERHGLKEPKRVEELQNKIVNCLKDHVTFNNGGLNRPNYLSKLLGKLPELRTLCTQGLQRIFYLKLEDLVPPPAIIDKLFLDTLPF
hNurr1_RXRγFL (NURR1/RXRγ heterodimer), sequence (P48443 whole entry, the tested form may be a part): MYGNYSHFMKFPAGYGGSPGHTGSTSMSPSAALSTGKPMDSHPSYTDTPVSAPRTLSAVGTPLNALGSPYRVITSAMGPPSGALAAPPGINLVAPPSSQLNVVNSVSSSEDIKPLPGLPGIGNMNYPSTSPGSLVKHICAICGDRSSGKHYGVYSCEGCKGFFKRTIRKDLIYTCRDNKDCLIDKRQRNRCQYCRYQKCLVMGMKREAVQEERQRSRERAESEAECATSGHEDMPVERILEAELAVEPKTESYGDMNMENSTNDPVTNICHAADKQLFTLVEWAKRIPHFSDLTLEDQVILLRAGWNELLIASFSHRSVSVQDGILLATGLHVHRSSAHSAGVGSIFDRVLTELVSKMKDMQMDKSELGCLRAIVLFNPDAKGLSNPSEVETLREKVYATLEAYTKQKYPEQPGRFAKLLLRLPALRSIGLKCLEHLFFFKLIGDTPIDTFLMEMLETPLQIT
In short: (§1)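 Efficiency is given as a percentage of the induction produced by 2·10^−5 M XCT0135908 (100%), measured from heterodimer baseline. Read-out was luciferase after overnight exposure to compounds (10^−4–3·10^−10 M final) in Cos-7 cells transfected with NURR-1-Gal4, RXRα or RXRγ, and a Gal4 luciferase reporter.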

[2] = target: hNurr1_RXRαFL (NURR1/RXRα heterodimer) (Homo sapiens, UniProt P19793+P43354); assay: Transactivation assay in Cos-7 cells, NURR-1-Gal4 / RXRα, luciferase reporter; type: cell-based; conditions: for Emax: COS-7, read-out: hNurr1_RXRαFL Eff (%), efficacy in % relative to the reference XCT0135908 at 2·10^−5 M (=100%); for EC50: Cos-7 cells, overnight incubation
hNurr1_RXRαFL (NURR1/RXRα heterodimer), sequence (P19793 whole entry, the tested form may be a part): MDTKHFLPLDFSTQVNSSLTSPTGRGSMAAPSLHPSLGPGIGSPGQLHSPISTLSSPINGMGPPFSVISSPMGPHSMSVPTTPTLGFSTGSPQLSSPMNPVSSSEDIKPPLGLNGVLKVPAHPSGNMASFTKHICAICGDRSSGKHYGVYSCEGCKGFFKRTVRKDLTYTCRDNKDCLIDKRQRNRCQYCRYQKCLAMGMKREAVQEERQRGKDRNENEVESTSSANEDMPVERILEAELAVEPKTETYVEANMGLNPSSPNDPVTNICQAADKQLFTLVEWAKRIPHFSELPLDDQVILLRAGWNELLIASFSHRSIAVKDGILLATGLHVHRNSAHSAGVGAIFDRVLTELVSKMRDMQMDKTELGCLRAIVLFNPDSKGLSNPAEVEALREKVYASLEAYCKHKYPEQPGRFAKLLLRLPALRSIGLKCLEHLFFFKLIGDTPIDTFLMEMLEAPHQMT
hNurr1_RXRαFL (NURR1/RXRα heterodimer), sequence (P43354 328-598): as the sequence (P43354 328-598) above
In short: as §1

[3] = Plasma and cerebral pharmacokinetic profile after oral administration; type: in vivo, male C57B16 mouse; conditions: oral administration 10 mg/kg in the mouse; for Kp: male, C57B16, brain/plasma, read-out: Ratio AUCbrain/AUCplasma
Description: A first series of in vivo assays were conducted with some compounds according to the invention, for the purpose of determining their plasma and cerebral pharmacokinetic profile in the male C57B16 mouse and thus verify that the compounds were capable of crossing the blood-brain barrier. The following procedure was used.
Male C57B16 mice (25-30 g) obtained from the Janvier establishment, Le Genest-St-Isle, France were used for this study (12 mice per dose). The animals were fed with standard rodent feed (Purina Mills, St. Louis, Mo.), placed in cages and subjected to light/darkness cycles of 12 h/12 h, the temperature of the room being maintained at 22±2° C. and the humidity at 55±10%. The mice were not fasting before administration. Water was supplied ad libitum throughout the study. The assayed compound was administered orally at 10 mg/kg. For oral administration at 10 mg/kg, the animals were force-fed with 10 mL/kg of a suspension of the assayed compound, prepared in methylcellulose 400 cp 1%. The animals were euthanized by anaesthesia at intervals of 15 min, 30 min, 1 h, 3 h, 6 h and 8 h after force-feeding. At each interval, blood was collected and the brain was removed from each euthanized animal. 1 mL of blood collected in 1.5 mL tubes containing 20 μL of evaporated anticoagulant (solution of sodium heparinate at 1000 IU/mL) was centrifuged at 4500 g for 3 min, obtaining about 400 μL of plasma. The plasma was distributed in 2 aliquots of 200 μL which were stored at −20° C. until extraction by protein precipitation and then analysis by liquid chromatography coupled with tandem mass spectrometry (LC-MS/MS) for quantification of the assayed compound. The brains were immersed in liquid nitrogen directly after removal, then stored at −20° C. for analysis. The brains were then ground in the presence of aqueous/organic solvent mixture to obtain a homogenate. These homogenates were then centrifuged and the assayed compound was extracted from the supernatant by liquid-liquid extraction, then quantified by LC-MS/MS.
The pharmacokinetic parameters were determined according to a non-compartmental approach using Excel. The area under curve (AUC0-t) was determined by the linear trapezoidal method. This method allows estimation of the integral of the concentrations over an interval of time (AUC0-t) and is based on the sum of the areas of the trapeziums delimited by the concentrations measured at the time of sampling (example AUC0-8 h=AUC0-0.25 h+AUC0.25 h-0.5 h+AUC0.5 h-t+AUCt-8 h). The penetration of the compounds through the blood-brain barrier is assessed from the ratio of the AUC measured in the brain to that measured in plasma. As an example, with the compounds of examples 32 and 49, the following results were obtained: […]

[4] = test system: mice treated with 1-methyl-4-phenyl-1,2,3,6-tetrahydropyridine (MPTP); assay: MPTP mouse model, dopamine in the striatum; type: in vivo, male C57BL6/J mice; conditions: oral, twice a day for 11 days; MPTP 25 mg/kg i.p. once a day for 5 days; FIGS. 1 and 2
Description: The compounds of examples 32 and 49 were assayed on a model of mice treated with 1-methyl-4-phenyl-1,2,3,6-tetrahydropyridine (MPTP) in order to confirm their potential activities. MPTP is a neurotoxin which causes permanent symptoms of Parkinson's disease by destroying certain neurons in the substantia nigra of the brain. The following procedure was used.
Male C57BL6/J mice aged 10-12 weeks at the start of the studies were distributed in groups of 8 animals. The compounds were administered orally, twice a day for a total of 11 days. Administration began 3 days before the treatment with the MPTP toxin at 25 mg/kg. MPTP was administered once a day by intraperitoneal injection for 5 days. Administration of the assayed compounds was continued for 3 days after the treatment with MPTP. One group of mice received the carrier only (0.5% solution of methylcellulose). The animals were euthanized after the last force-feeding and the striatum was removed. Dopamine was extracted from the striatum and the amount of dopamine (DA) expressed in ng per g of striatum (mean±SEM) was measured by high-performance liquid chromatography (HPLC) with electrochemical detection.

Structure (SMILES) | Emax [1] [%] | EC50 [1] [nM] | Emax [2] [%] | EC50 [2] [nM] | Kp [3] | AUCbrain [3] [ng·h/mL] | effect on the MPTP-induced decrease of dopamine in the striatum [4] | melting point [°C] | hNurr1_RXRαFL Eff (%) ([2]; efficacy in % relative to the reference XCT0135908 at 2·10^−5 M (=100%))
CC(C)(C)c1cccc(S(=O)(=O)n2c(Cc3ccc(C(=O)O)cc3)cc3cc(C(F)(F)F)ccc32)c1 [Example 49, 4-[[1-[[3-(1,1-dimethylethyl)phenyl]sulfonyl]-5-(trifluoromethyl)-1H-indol-2-yl]methyl]benzoic acid] | 71 | 110 | 73 | 48 | 0.8 | 10491 | dose-dependent decrease in the action of MPTP | – | –
Cc1c(Cc2ccc(C(=O)O)s2)n(S(=O)(=O)c2cccc(C(C)(C)C)c2)c2ccc(C(F)(F)F)cc12 [Example 85, 5-[[1-[[3-(1,1-dimethylethyl)-phenyl]sulfonyl]-3-methyl-5-trifluoromethyl-1H-indol-2-yl]methyl]-thiophene-2-carboxylic acid] | 73 | 115 | 87 | 53 | – | – | – | 171 | –
CC(C)c1cccc(S(=O)(=O)n2c(Cc3ccc(C(=O)O)cc3)cc3cc(C(F)(F)F)ccc32)c1 [Example 32, 4-[[1-[[3-(1-methylethyl)phenyl]sulfonyl]-5-(trifluoromethyl)-1H-indol-2-yl]methyl]benzoic acid] | 62 | 219 | – | 103 | 0.8 | 3763 | dose-dependent decrease in the action of MPTP | – | 68
CC(C)c1ccc(S(=O)(=O)n2c(Cc3ccc(C(=O)O)c(F)c3)cc3cc(C(F)(F)F)ccc32)cc1 [Example 2, 2-fluoro-4-[[1-[[4-(1-methylethyl)phenyl]sulfonyl]-5-(trifluoromethyl)-1H-indol-2-yl]methyl]benzoic acid] | 43 | 724 | 63 | 657 | – | – | – | 197 | –
CC(C)(C)c1cccc(S(=O)(=O)n2c(Cc3ccc(C(=O)O)c(O)c3)cc3cc(C(F)(F)F)ccc32)c1 [Example 56] | 51 | 417 | 82 | 1160 | – | – | – | 129 | –
CC(C)(C)c1cccc(S(=O)(=O)n2c(Cc3ccc(C(=O)O)cc3F)cc3cc(C(F)(F)F)ccc32)c1 [Example 67, 4-[[1-[[3-(1,1-dimethylethyl)phenyl]sulfonyl]-5-trifluoromethyl-1H-indol-2-yl]methyl]-3-fluorobenzoic acid] | 75 | 91 | 73 | 28 | – | – | – | 177 | –
COC(=O)c1cc(Cc2cc3cc(C(F)(F)F)ccc3n2S(=O)(=O)c2cccc(C(C)(C)C)c2)cn1C [Example 192, 4-{[1-[[3-(1,1-dimethylethyl)-phenyl]sulfonyl]-5-trifluoromethyl-1H-indol-2-yl]-methyl}-1-methyl-1H-pyrrol-2-yl-carboxylic acid, methyl ester] | 58 | > 10000 | 85 | 1120 | – | – | – | – | –
O=C(O)c1ccc(Cc2cc3cc(Cl)ccc3n2S(=O)(=O)c2ccc(-c3cccc(F)c3)cc2)cc1 [Example 172, 4-[[1-[3′-fluoro-biphenyl-4-sulfonyl]-5-(chloro)-1H-indol-2-yl]methyl]benzoic acid] | 47 | 567 | 82 | 117 | – | – | – | – | –
O=C(O)c1ccc(Cc2cc3cc(C(F)(F)F)ccc3n2S(=O)(=O)c2ccc3ccccc3c2)cc1 [Example 25, 4-[[1-(2-naphthalenylsulfonyl)-5-(trifluoromethyl)-1H-indol-2-yl]methyl]benzoic acid] | 33 | 864 | 47 | 496 | – | – | – | – | –
CC(C)(C)c1cccc(S(=O)(=O)n2c(Cc3ccc(C(=O)O)cc3)c(F)c3cc(C(F)(F)F)ccc32)c1 [Example 149, 4-[[1-[[3-(1,1-dimethylethyl)phenyl]sulfonyl]-3-fluoro-5-(trifluoromethyl)-1H-indol-2-yl]methyl]-benzoic acid] | 80 | 225 | 98 | 94 | – | – | – | – | –
C=C(c1ccc(C(=O)O)cc1)c1cc2cc(Cl)ccc2n1S(=O)(=O)c1ccc(C(C)C)cc1 [Example 102, 4-[1-[1[[4-(1-methylethyl)phenyl]sulfonyl]-5-(chloro)-1H-indol-2-yl]-1-ethenyl]-benzoic acid] | 27 | 676 | 49 | 363 | – | – | – | – | –
CCc1ccc(S(=O)(=O)n2c(Cc3ccc(C(=O)O)cc3)cc3cc(Cl)ccc32)cc1 [Example 159, 4-[[1-[4-ethyl-phenylsulfonyl]-5-(chloro)-1H-indol-2-yl]methyl]benzoic acid] | 45 | 785 | 66 | 319 | – | – | – | – | –
CC(C)(C)c1cccc(S(=O)(=O)n2c(Cc3ccc(C4=NOC(=O)C4)cc3)cc3cc(C(F)(F)F)ccc32)c1 [Example 228, 3-[4-[[1-[[3-(1,1-dimethylethyl)phenyl]sulfonyl]-5-(trifluoromethyl)-1H-indol-2-yl]methyl]-phenyl]-4H-isoxazol-5-one] | 63 | 335 | 90 | 113 | – | – | – | – | –
